In patent US6599713B1, “Method for quantitating leukocyte count in whole blood sample” (priority 1999, dated 2003):

Assays:
[1] = test system: white blood cells contained in the whole blood; assay: Time required for lyzing white blood cells: MPO released from whole blood by surfactant, MPO enzyme immunoassay kit (Example 1); assay type: cell-based, human; conditions: room temperature; for MPO concentration of whole blood: 100 μl of 11% solution per 1 ml healthy human whole blood, mean ± SD of 3
Procedure: 10 ml of healthy human whole blood was collected in a test tube containing 10 mg of EDTA-2K (manufactured and sold by Dojin Laboratories, Japan) and the resultant EDTA-containing whole blood sample was stirred well, and then 1 ml of the whole blood sample was taken out from the test tube. To the 1 ml whole blood sample taken out from the test tube was added 100 μl of an aqueous 11% solution of Triton™ X-100 (manufactured and sold under the brand of SIGMA™, U.S.A.), and the resultant mixture was stirred well and then allowed to stand at room temperature for 1 minute to obtain a (whole blood sample/surfactant) mixture containing the lyzed white blood cells. Substantially the same operation as mentioned above was repeated except that the standing time at room temperature was changed to 5 minutes, 30 minutes and 60 minutes to thereby lyze the white blood cells contained in the whole blood.
After the above-mentioned period of time, each of the obtained (whole blood sample/surfactant) mixtures containing the lyzed white blood cells was individually diluted 2,000-fold with a sample diluting buffer (20 mM phosphate buffer (pH 7.4) containing 0.1% bovine serum albumin and 0.2% sodium azide), which buffer is attached to BIOXYTEC™ MPO Enzyme Immunoassay kit (manufactured and sold by OXIS International, Inc., U.S.A.), and the resultant diluted mixture was taken as a sample for the measurement of myeloperoxidase (MPO).
With respect to the above-mentioned sample for the measurement of MPO and a standard MPO solution (which is obtained by dissolving commercially available MPO in the above mentioned buffer), the measurement of the MPO concentration was performed using BIOXYTEC™ MPO Enzyme Immunoassay kit (manufactured and sold by OXIS International, Inc., U.S.A.) in accordance with the instruction manual attached thereto.
Specifically, with respect to the measurement of the MPO concentration of the above-mentioned sample, MPO (manufactured and sold by Elastin Products Co., INC., U.S.A.) was added to the sample so that the final concentration of the added MPO became 5 ng/ml or 10 ng/ml, and the resultant mixture was measured with respect to the MPO concentration. From the obtained value of MPO concentration, a calibration curve for each sample was obtained. The obtained calibration curve was corrected, based on its relationship with a calibration curve obtained with respect to the standard MPO solution, and the corrected calibration curve of each sample was used to determine the MPO concentration of the whole blood. The measurement was conducted 3 times, and a mean value±standard deviation was obtained.

[2] = test system: white blood cells contained in the whole blood; assay: Concentration of surfactant and release amount of MPO in whole blood, ELISA (Example 2); assay type: cell-based, human; conditions: 60 minutes on ice, mean ± SD of 3
Procedure: 10 ml of healthy human whole blood was collected and immediately mixed with 10 mg of EDTA-2K (manufactured and sold by Dojin Laboratories, Japan), and the resultant EDTA-containing whole blood sample was subjected to the below-described various measurements within 1 hour from the blood collection.
500 μl of the blood was put in a 2-ml Eppendorf tube, and 500 μl of an aqueous surfactant solution having a surfactant concentration of 0.1, 0.2, 0.4, 0.6, 1, 2, 4, 10 or 20% (w/v) was added to the tube, and the resultant mixture was stirred for 2 seconds by a Vortex mixer. Subsequently, the mixture was allowed to stand for 60 minutes on ice to thereby lyze the white blood cells. […] After the lysis of the white blood cells, 100 μl of the mixture was taken out and added to 900 μl of a PBS solution containing dissolved therein 1% BSA (trade name: “Sigma fraction V”, manufactured and sold under the brand of SIGMA™, U.S.A.). The resultant mixture was stirred by a Vortex mixer, and then 10 μl of the mixture was taken out and diluted 2,000-fold with 1% BSA/PBS solution. The resultant diluted mixture was subjected to a measurement by ELISA.
The outline of the ELISA is as follows. A 5 μg/ml PBS solution of a rabbit anti-human myeloperoxidase antibody (manufactured and sold by Calbiochem-Novabiochem Corporation, U.S.A.)(hereinafter, frequently referred to as “anti-MPO antibody”) was put into the wells of a Nunc Immuno Plate (manufactured and sold by Nalge Nunc International, Denmark) in an amount of 100 μl per well. The solution in each well was sealed and subjected to a reaction for 18 hours at 4° C. thereby immobilizing the primary antibody. The wells were washed with a washing solution (0.05% Tween™ 20/PBS) and then subjected to blocking for 1 hour at room temperature by using 200 μl of a blocking solution (1% BSA/PBS), and then washed twice with the washing solution. Then, the above-obtained diluted mixture (blood sample which had been treated with a surfactant and then diluted) was put in the wells in an amount of 100 μl per well, and subjected to a reaction for 2 hours at room temperature. Then, the wells were washed 3 times with the washing solution, and a 5 μg/ml solution of an anti-MPO antibody labeled with horseradish peroxidase (hereinafter referred to as “HRP”) was put in the wells in an amount of 100 μl per well, and subjected to a reaction for 1 hour at room temperature. As the above-mentioned HRP-labeled anti-MPO antibody, an anti-human MPO antibody (manufactured and sold by Calbiochem-Novabiochem Corporation, U.S.A.) which had been labeled with HRP Grade IV (manufactured and sold under the brand of SIGMA™, U.S.A.) was employed. The labeling was performed by the method described in Analytical Biochemistry, 132, 68-73 (1983). The wells were washed 5 times with the washing solution, and 100 1 μl of a just-prepared TMB solution (manufactured and sold by Kirkegaad & Perry Laboratories, U.S.A.) was added thereto to effect a color reaction. 2 Minutes after the start of the color reaction, 100 μl of a 1 N sulfuric acid solution (manufactured and sold by Nacalai Tesque, Inc., Japan) was added to the wells to thereby terminate the reaction. Then, the absorbance at 450 nm was measured by means of a plate reader (manufactured and sold by Bio-Rad Laboratories, U.S.A.). The measurement was conducted 3 times, and a mean value±standard deviation was obtained.

## α-[4-(1,1,3,3,-Tetramethylbutyl)phenyl]-ω-hydroxypoly(oxy-1,2-ethanediyl) [Triton ™ X-100]
[1]; healthy human whole blood
  Time from start of treatment within which MPO is released from the white blood cells to a satisfactory extent: ≤ 60 min
[1]; treatment time 1 minute
  MPO concentration of whole blood: 9.88 ± 0.50 µg/mL
[1]; treatment time 5 minutes
  MPO concentration of whole blood: 10.17 ± 0.63 µg/mL
[1]; treatment time 30 minutes
  MPO concentration of whole blood: 9.94 ± 0.72 µg/mL
[1]; treatment time 60 minutes
  MPO concentration of whole blood: 10.01 ± 0.22 µg/mL
[2]; concentration of surfactant 0.05 % (w/v)
  Release amount of MPO in whole blood: 0.104 ± 0.005 Abs. 450 nm
[2]; concentration of surfactant 0.10 % (w/v)
  Release amount of MPO in whole blood: 0.161 ± 0.009 Abs. 450 nm
[2]; concentration of surfactant 0.20 % (w/v)
  Release amount of MPO in whole blood: 0.202 ± 0.006 Abs. 450 nm
[2]; concentration of surfactant 0.30 % (w/v)
  Release amount of MPO in whole blood: 0.228 ± 0.009 Abs. 450 nm
[2]; concentration of surfactant 0.50 % (w/v)
  Release amount of MPO in whole blood: 0.262 ± 0.005 Abs. 450 nm
[2]; concentration of surfactant 1.00 % (w/v)
  Release amount of MPO in whole blood: 0.245 ± 0.011 Abs. 450 nm
[2]; concentration of surfactant 2.00 % (w/v)
  Release amount of MPO in whole blood: 0.216 ± 0.004 Abs. 450 nm
[2]; concentration of surfactant 5.00 % (w/v)
  Release amount of MPO in whole blood: 0.228 ± 0.007 Abs. 450 nm
[2]; concentration of surfactant 10.00 % (w/v)
  Release amount of MPO in whole blood: 0.227 ± 0.007 Abs. 450 nm
